Experimental data: the NIST ThermoML archive (doi:10.1016/j.jct.2018.08.014)

Experiments:
[1] = Crystal; DSC
[2] = molar heat capacity at constant pressure; conditions: 101.33 kPa, Liquid, DSC

CCCCCCCC(=O)OCCCC [butyl octanoate]
Conditions	Triple point temperature [K]
[1]	230

[2]
Conditions	molar heat capacity at constant pressure [J/K/mol]
241 K	387.43
243 K	387.43
245 K	386.6
247 K	386.6
249 K	386.6
251 K	386.6
253 K	386.6
255 K	387.43
257 K	388.26
259 K	387.43
261 K	387.43
263 K	386.6
265 K	386.6
267 K	386.6
269 K	386.6
271 K	386.6
273 K	386.6
275 K	386.6
277 K	386.6
279 K	388.26
281 K	389.1
283 K	390.76
285 K	391.59
287 K	391.59
289 K	393.25
291 K	394.08
293 K	394.92
295 K	395.75
297 K	396.58
298 K	397.41
299 K	397.41
301 K	398.24
303 K	399.07

CCCCCCCCCC(=O)OCC [ethyl decanoate]
Conditions	Triple point temperature [K]
[1]	252

[2]
Conditions	molar heat capacity at constant pressure [J/K/mol]
263 K	375.79
265 K	375.79
267 K	375.79
269 K	375.79
271 K	375.79
273 K	374.96
275 K	374.13
277 K	374.96
279 K	376.62
281 K	378.29
283 K	379.12
285 K	379.95
287 K	379.95
289 K	380.78
291 K	380.78
293 K	381.61
295 K	382.44
297 K	383.28
298 K	383.28
299 K	384.11
301 K	385.77
303 K	385.77

CCCCCCOC(=O)CCCCC [hexanoic acid, hexyl ester]
Conditions	Triple point temperature [K]
[1]	217

[2]
Conditions	molar heat capacity at constant pressure [J/K/mol]
227 K	390.76
229 K	387.43
231 K	385.77
233 K	384.94
235 K	384.11
237 K	384.11
239 K	383.28
241 K	383.28
243 K	383.28
245 K	383.28
247 K	383.28
249 K	383.28
251 K	383.28
253 K	383.28
255 K	384.11
257 K	384.94
259 K	384.94
261 K	384.94
263 K	385.77
265 K	385.77
267 K	385.77
269 K	385.77
271 K	385.77
273 K	384.94
275 K	384.94
277 K	385.77
279 K	386.6
281 K	387.43
283 K	389.1
285 K	389.93
287 K	390.76
289 K	392.42
291 K	392.42
293 K	393.25
295 K	394.08
297 K	394.92
298 K	394.92
299 K	394.92
301 K	396.58
303 K	397.41

CCCCCCCCCCC(=O)OC [methyl undecanoate]
Conditions	Triple point temperature [K]
[1]	262

[2]
Conditions	molar heat capacity at constant pressure [J/K/mol]
273 K	381.61
275 K	381.61
277 K	384.11
279 K	380.78
281 K	381.61
283 K	382.44
285 K	382.44
287 K	385.77
289 K	384.11
291 K	384.11
293 K	384.94
295 K	384.94
297 K	385.77
298 K	389.1
299 K	385.77
301 K	386.6
303 K	389.93

CCCCCCCCOC(=O)CCC [octyl butanoate]
Conditions	Triple point temperature [K]
[1]	218

[2]
Conditions	molar heat capacity at constant pressure [J/K/mol]
227 K	380.78
229 K	379.12
231 K	379.12
233 K	378.29
235 K	376.62
237 K	376.62
239 K	375.79
241 K	374.96
243 K	374.13
245 K	373.3
247 K	373.3
249 K	372.47
251 K	372.47
253 K	372.47
255 K	372.47
257 K	373.3
259 K	372.47
261 K	373.3
263 K	373.3
265 K	373.3
267 K	374.13
269 K	374.13
271 K	374.13
273 K	373.3
275 K	373.3
277 K	373.3
279 K	374.13
281 K	375.79
283 K	376.62
285 K	377.46
287 K	378.29
289 K	379.12
291 K	379.95
293 K	380.78
295 K	381.61
297 K	383.28
298 K	383.28
299 K	384.11
301 K	385.77
303 K	385.77
